Patent US10828316B2, “Method of treating bacterial infections” (priority 2016, dated 2020)
Like-named read-outs stand apart in the source and are kept apart here.

Experiments:
S. flexneri APV00907 = test: MIC; format: cell-based; conditions: S. flexneri APV00907
E. aerogenes EN0461 = test: MIC; format: cell-based, Enterobacter aerogenes
K. pneumoniae EN0006 = test: MIC; format: cell-based
E. coli ATCC 25922 = test: MIC, in vitro sensitivity of the strain used in vivo; conditions: Escherichia coli
E. coli strain no 2 = test: MIC; conditions: Escherichia coli
E. coli EN0001 = test: MIC; format: cell-based
P. aeruginosa EN0004 = test: MIC; format: cell-based
K. pneumoniae EN011 = test: MIC; format: cell-based, Klebsiella pneumoniae
K. pneumoniae EN0463 = test: MIC; format: cell-based, Klebsiella pneumoniae
E. coli EN013 = test: MIC; format: cell-based, Escherichia coli
K. pneumoniae EN0401 = test: MIC; format: cell-based
[1] = tested on: Helicobacter pylori ATTC43504; test: MIC; format: cell-based
Text: (§1) Inhibition of Heliobacter is important in view of increasing resistance and its association to gastric cancer.

[2] = tested on: Helicobacter pylori APV00918; test: MIC; format: cell-based; conditions: in FdUrd+trimethoprim+uridine combination
Text: as §1

K. pneumoniae EN0233 = test: MIC; format: cell-based
S. sonnei APV00908 = test: MIC; format: cell-based; conditions: S. sonnei APV00908
K. pneumoniae EN006 = test: MIC; format: cell-based, Klebsiella pneumoniae
E. coli B EN0458 = test: MIC; format: cell-based, Escherichia coli B
E. coli EN002 = test: MIC; format: cell-based, Escherichia coli
E. coli EN012 = test: MIC; format: cell-based, Escherichia coli
A. baumannii EN017 = test: MIC; format: cell-based, Acinetobacter baumannii
E. coli EN001 = test: MIC; format: cell-based, Escherichia coli
K. pneumoniae EN0436 = test: MIC; format: cell-based
S. epidermidis EN0456 = test: MIC; format: cell-based, Staphylococcus epidermidis
K. oxytoca EN0392 = test: MIC; format: cell-based, Klebsiella oxytoca
P. aeruginosa EN015 = test: MIC; format: cell-based, Pseudomonas aeruginosa
A. baumannii EN0007 = test: MIC; format: cell-based, A. baumanii
K. pneumoniae EN010 = test: MIC; format: cell-based, Klebsiella pneumoniae
S. typhimurium EN0466 = test: MIC; format: cell-based, Salmonella typhimurium
S. flexneri APV00906 = test: MIC; format: cell-based; conditions: S. flexneri APV00906
E. coli EN0137 = test: MIC; format: cell-based; conditions: in FdUrd+trimethoprim+uridine combination
P. mirabilis ST19 EN0445 = test: MIC; format: cell-based, Proteus mirabilis; conditions: in FdUrd+trimethoprim+uridine combination
Citrobacter sp. EN0465 = test: MIC; format: cell-based; conditions: in FdUrd+trimethoprim+uridine combination
K. pneumoniae EN0144 = test: MIC; format: cell-based; conditions: in FdUrd+trimethoprim+uridine combination
K. pneumoniae EN0437 = test: MIC; format: cell-based; conditions: in FdUrd+trimethoprim+uridine combination
E. coli EN003 = test: MIC; format: cell-based, Escherichia coli; conditions: in FdUrd+trimethoprim+uridine combination
[3] = in AZT+trimethoprim+uridine combination
[4] = in FdUrd+trimethoprim+uridine combination
[5] = Combination 1 (AZT+trimethoprim+uridine)
[6] = in didanosine+trimethoprim+uridine combination
[7] = Combination 2 (same mixed with thymidine)

COc1cc(Cc2cnc(N)nc2N)cc(OC)c1OC [Trimethoprim, trimethoprim]
0.064 µg/mL: MIC (E. coli B EN0458; [4]) | MIC (E. coli B EN0458; [6]) | MIC (E. coli EN002; [4]) | MIC (E. coli EN002; [6]) | MIC (E. coli EN012; [4]) | MIC (E. coli EN001; [5]) | MIC (S. epidermidis EN0456; [5]) | MIC (K. oxytoca EN0392; [5]) | MIC (S. typhimurium EN0466; [5])
0.125 µg/mL: MIC (E. coli EN0001; [3]) | MIC (K. pneumoniae EN011; Klebsiella pneumoniae, EN011, K. pneumoniae EN011, in AZT+trimethoprim+uridine combination) | MIC (K. pneumoniae EN011; Klebsiella pneumoniae, EN011, K. pneumoniae EN011, in FdUrd+trimethoprim+uridine combination) | MIC (K. pneumoniae EN0463; [5]) | MIC [1, 3] | MIC [1, 4] | MIC [2] | MIC (K. pneumoniae EN006; [5]) | MIC (E. coli EN002; [7]) | MIC (E. coli EN012; [6]) | MIC (K. pneumoniae EN0436; [3]) | MIC (S. epidermidis EN0456; [6])
>4 µg/mL: MIC (P. aeruginosa EN0004; [3]) | MIC (A. baumannii EN0007; [3])
0.25 µg/mL: MIC (E. aerogenes EN0461; [5]) | MIC (E. aerogenes EN0461; [3]) | MIC (K. pneumoniae EN0006; [3]) | MIC (K. pneumoniae EN011; Klebsiella pneumoniae, EN011, K. pneumoniae EN011, Combination 2 (same mixed with thymidine)) | MIC (K. pneumoniae EN011; Klebsiella pneumoniae, EN011, K. pneumoniae EN011, in didanosine+trimethoprim+uridine combination) | MIC (K. pneumoniae EN0463; [7]) | MIC (K. pneumoniae EN0233; [3]) | MIC (E. coli EN001; [4]) | MIC (E. coli EN001; [6]) | MIC (K. oxytoca EN0392; [4]) | MIC (K. pneumoniae EN010; [5]) | MIC (S. typhimurium EN0466; [4])
1: score at sampling (E. coli; Trimethoprim 30 mg/kg, single mice)
>8 µg/mL: MIC (S. flexneri APV00907; [4]) | MIC (P. aeruginosa EN0004; [4]) | MIC (P. aeruginosa EN0004; [6]) | MIC (K. pneumoniae EN0401; [4]) | MIC (K. pneumoniae EN0401; [6]) | MIC (S. sonnei APV00908; [4]) | MIC (A. baumannii EN0007; [4]) | MIC (A. baumannii EN0007; [6]) | MIC (S. flexneri APV00906; [4])
0.03 µg/mL: MIC (S. sonnei APV00908; [3])
5 to 10 µg/mL: MIC (E. coli strain no 2; NO2, E. coli strain 2, 5 uM thymidine, uridine 0 μg/ml)
8 to 16 µg/mL: MIC (E. coli strain no 2; NO2, read-out: MIC of trimethoprim only, E. coli strain no 2)
2.5 to 5 µg/mL: MIC (E. coli strain no 2; NO2, E. coli strain 2, 5 uM thymidine, uridine 10 μg/ml) | MIC (E. coli strain no 2; NO2, E. coli strain 2, 5 uM thymidine, uridine 100 μg/ml)
slight inhibition: inhibition in mice infected with E. coli (E. coli; murine peritonitis model)
1 µg/mL: MIC (K. pneumoniae EN0006; [4]) | MIC (K. pneumoniae EN0006; [6]) | MIC (E. coli ATCC 25922; ATCC25922, read-out: MIC against E. coli ATCC 25922, Plate F: TMP with 2 μg/ml thymidine) | MIC (A. baumannii EN017; Acinetobacter baumannii, EN017, A. baumannii EN017, Combination 1 (AZT+trimethoprim+uridine)) | MIC (A. baumannii EN017; Acinetobacter baumannii, EN017, A. baumannii EN017, Combination 2 (same mixed with thymidine)) | MIC (A. baumannii EN017; Acinetobacter baumannii, EN017, A. baumannii EN017, in AZT+trimethoprim+uridine combination) | MIC (A. baumannii EN017; Acinetobacter baumannii, EN017, A. baumannii EN017, in FdUrd+trimethoprim+uridine combination) | MIC (S. flexneri APV00906; [3])
0.032 µg/mL: MIC (K. pneumoniae EN011; Klebsiella pneumoniae, EN011, K. pneumoniae EN011, Combination 1 (AZT+trimethoprim+uridine)) | MIC (E. coli EN013; Escherichia coli, EN013, E. coli EN013, in FdUrd+trimethoprim+uridine combination) | MIC (E. coli EN013; Escherichia coli, EN013, E. coli EN013, in didanosine+trimethoprim+uridine combination)
0.5 µg/mL: MIC (E. coli ATCC 25922; ATCC25922, read-out: MIC against E. coli ATCC 25922, Plate C: TMP alone) | MIC (E. coli ATCC 25922; ATCC25922, read-out: MIC against E. coli ATCC 25922: TMP, Plate D: AZT + TMP with 50 μg/ml uridine and 2 μg/ml thymidine) | MIC (E. coli EN0001; [4]) | MIC (E. coli EN0001; [6])
2 µg/mL: MIC (S. flexneri APV00907; [3]) | MIC (A. baumannii EN017; Acinetobacter baumannii, EN017, A. baumannii EN017, in didanosine+trimethoprim+uridine combination) | MIC (P. aeruginosa EN015; Pseudomonas aeruginosa, EN015, P. aeruginosa EN015, Combination 1 (AZT+trimethoprim+uridine)) | MIC (P. aeruginosa EN015; Pseudomonas aeruginosa, EN015, P. aeruginosa EN015, Combination 2 (same mixed with thymidine)) | MIC (P. aeruginosa EN015; Pseudomonas aeruginosa, EN015, P. aeruginosa EN015, in AZT+trimethoprim+uridine combination) | MIC (P. aeruginosa EN015; Pseudomonas aeruginosa, EN015, P. aeruginosa EN015, in FdUrd+trimethoprim+uridine combination) | MIC (P. aeruginosa EN015; Pseudomonas aeruginosa, EN015, P. aeruginosa EN015, in didanosine+trimethoprim+uridine combination)
< 0.008 µg/mL: MIC (E. coli EN013; Escherichia coli, EN013, E. coli EN013, Combination 1 (AZT+trimethoprim+uridine)) | MIC (E. coli EN013; Escherichia coli, EN013, E. coli EN013, Combination 2 (same mixed with thymidine)) | MIC (E. coli EN013; Escherichia coli, EN013, E. coli EN013, in AZT+trimethoprim+uridine combination)
0.06 µg/mL: MIC (E. coli ATCC 25922; ATCC25922, read-out: MIC against E. coli ATCC 25922: TMP, Plate A: AZT + TMP with 50 μg/ml uridine)

O=c1[nH]c(=O)n([C@H]2C[C@H](O)[C@@H](CO)O2)cc1F [FdUrd]
0.25 µg/mL: MIC (E. coli EN0001; [4]) | MIC (K. pneumoniae EN0463; [4]) | MIC (K. pneumoniae EN0436; [4])
0.5 µg/mL: MIC (P. mirabilis ST19 EN0445) | MIC (K. pneumoniae EN0006; [4]) | MIC (K. pneumoniae EN0233; [4]) | MIC (K. pneumoniae EN006; [4]) | MIC (A. baumannii EN017; A. baumannii EN017, in FdUrd+trimethoprim+uridine combination) | MIC (K. pneumoniae EN010; [4])
0.016 µg/mL: MIC (E. coli EN013; E. coli EN013, in FdUrd+trimethoprim+uridine combination) | MIC (E. coli EN003)
1 µg/mL: MIC (E. aerogenes EN0461; [4]) | MIC (P. aeruginosa EN015; P. aeruginosa EN015, in FdUrd+trimethoprim+uridine combination)
0.125 µg/mL: MIC (E. coli EN001; [4]) | MIC (K. oxytoca EN0392; [4]) | MIC (S. typhimurium EN0466; [4])
<0.008 µg/mL: MIC (S. epidermidis EN0456; [4])
0.06 µg/mL: MIC [1, 4] | MIC [2]
0.032 µg/mL: MIC (E. coli B EN0458; [4]) | MIC (E. coli EN002; [4]) | MIC (E. coli EN012; [4])
>4 µg/mL: MIC (E. coli EN0137) | MIC (S. flexneri APV00907; [4]) | MIC (Citrobacter sp. EN0465) | MIC (P. aeruginosa EN0004; [4]) | MIC (K. pneumoniae EN0401; [4]) | MIC (S. sonnei APV00908; [4]) | MIC (K. pneumoniae EN0144) | MIC (K. pneumoniae EN0437) | MIC (A. baumannii EN0007; [4]) | MIC (S. flexneri APV00906; [4])
0.064 µg/mL: MIC (K. pneumoniae EN011; K. pneumoniae EN011, in FdUrd+trimethoprim+uridine combination)
